From ChEMBL document CHEMBL3992518, “Peptide Macrocycle Inhibitor of Coagulation Factor XII with Subnanomolar Affinity and High Target Selectivity” (J Med Chem, 2017)
Active and inactive are the calls of the source. The rule behind the calls is not given here. *1 amine or outer side, *2 acyl side, *3 side chain or, on linkers, in order; H or OH if unused. Where a SMILES comes first, the peptide text is derived from it. Bridges are numbered along the chain shown (N, C = ends). [ ]: non-standard residue; d: D form. TATA = O=C(CC[*:1])N1CN(C(=O)CC[*:2])CN(C(=O)CC[*:3])C1; Phe(4-guanidino) = N=C(N)Nc1ccc(C[C@H](N)C(=O)O)cc1; hArg = N=C(N)NCCCC[C@H](N)C(=O)O; Nva = CCC[C@H](N)C(=O)O

How the values were obtained:
[1] = biological target: T1, Coagulation factor XII (Homo sapiens, UniProt P00748); test: Inhibition of human beta factor 12a using fluorogenic substrate Boc-Gln-Gly-Arg-AMC preincubated for 10 mins followed by addition of substrate measured every min for 30 mins
T1 sequence (P00748 whole entry): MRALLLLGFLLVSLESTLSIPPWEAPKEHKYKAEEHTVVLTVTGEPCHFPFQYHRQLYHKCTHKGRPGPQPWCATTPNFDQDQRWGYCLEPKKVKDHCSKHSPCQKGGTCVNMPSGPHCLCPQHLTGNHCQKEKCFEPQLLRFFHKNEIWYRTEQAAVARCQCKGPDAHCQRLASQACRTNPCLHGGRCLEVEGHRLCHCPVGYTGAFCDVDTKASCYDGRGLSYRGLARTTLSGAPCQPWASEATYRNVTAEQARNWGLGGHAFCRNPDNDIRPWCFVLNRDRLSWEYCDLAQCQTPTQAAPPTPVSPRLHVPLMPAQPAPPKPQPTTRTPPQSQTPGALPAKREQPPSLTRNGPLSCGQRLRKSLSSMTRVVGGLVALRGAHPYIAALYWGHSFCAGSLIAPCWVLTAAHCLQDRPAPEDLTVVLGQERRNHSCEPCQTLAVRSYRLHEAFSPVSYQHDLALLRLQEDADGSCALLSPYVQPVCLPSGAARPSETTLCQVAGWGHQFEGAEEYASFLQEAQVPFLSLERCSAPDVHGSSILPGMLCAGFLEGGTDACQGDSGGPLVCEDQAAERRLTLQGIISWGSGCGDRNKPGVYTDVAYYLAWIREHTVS

[2] = organism: Homo sapiens; test: Inhibition of human trypsin at 40 uM using fluorogenic substrate Z-Gly-Gly-Arg-AMC
[3] = biological target: Plasma kallikrein (Homo sapiens, UniProt P03952); test: Inhibition of human plasma kallikrein at 40 uM using fluorogenic substrate Z-Phe-Arg-AMC
Sequence of Plasma kallikrein (P03952 20-390 limits assumed): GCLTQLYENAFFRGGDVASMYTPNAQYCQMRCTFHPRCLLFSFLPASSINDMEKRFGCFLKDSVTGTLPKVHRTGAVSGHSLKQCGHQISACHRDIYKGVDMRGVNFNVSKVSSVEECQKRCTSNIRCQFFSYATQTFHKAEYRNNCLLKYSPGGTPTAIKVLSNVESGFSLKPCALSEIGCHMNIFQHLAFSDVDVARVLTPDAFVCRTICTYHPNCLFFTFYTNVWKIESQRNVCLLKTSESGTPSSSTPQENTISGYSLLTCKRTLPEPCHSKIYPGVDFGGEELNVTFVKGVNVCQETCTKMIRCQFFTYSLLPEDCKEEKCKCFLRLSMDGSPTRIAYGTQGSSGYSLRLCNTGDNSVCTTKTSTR
Sequence of Plasma kallikrein (P03952 391-638 limits assumed): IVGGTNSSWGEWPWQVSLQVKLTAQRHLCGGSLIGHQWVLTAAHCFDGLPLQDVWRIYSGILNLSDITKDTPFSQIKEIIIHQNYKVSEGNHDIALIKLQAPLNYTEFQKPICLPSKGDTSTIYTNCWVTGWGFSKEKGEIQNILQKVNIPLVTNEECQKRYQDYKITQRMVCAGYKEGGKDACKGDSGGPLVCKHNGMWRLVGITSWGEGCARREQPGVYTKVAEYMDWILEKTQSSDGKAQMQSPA

[4] = system: Plasma; test: Anticoagulant activity in human plasma assessed as concentration required to double activated partial thromboplastin time by coagulation analyser; type: functional
[5] = system: Plasma; test: Anticoagulant activity in human plasma assessed as change in prothrombin time up to 40 uM by coagulation analyser; type: functional, cell-free
[6] = Half life in human citrated plasma at 10 uM by mass spectrophotometric analysis; type: ADME, cell-free

| Structure (SMILES) | Ki [1] | half-life at 10 µM [6] | also measured |
| --- | --- | --- | --- |
| CC(C)C[C@@H]1NC(=O)[C@H](CCC(N)=O)NC(=O)[C@H](CCCNC(=N)N)NC(=O)[C@@H]2CSCCC(=O)N3CN(CN(C3)C(=O)CCSC[C@H](NC(=O)[C@@H](N)CCCNC(=N)N)C(=O)N[C@@H](Cc3ccccc3)C(=O)N[C@@H](CCCNC(=N)N)C(=O)N[C@@H](CC(C)C)C(=O)N3CCC[C@H]3C(=O)N2)C(=O)CCSC[C@@H](C(=O)N[C@@H](CCCNC(=N)N)C(=O)O)NC(=O)[C@H](CCCNC(=N)N)NC1=O |  | 4 h | inhibition [2]: Active; inhibition [3]: Active; 2aPTT [4]: 2.9 µM; Activity [4]: Dose-dependent effect; Activity [5]: inactive |
| CC(C)C[C@@H]1NC(=O)[C@H](CCC(N)=O)NC(=O)[C@H](CCCNC(=N)N)NC(=O)[C@@H]2CSCCC(=O)N3CN(CN(C3)C(=O)CCSC[C@H](NC(=O)[C@@H](N)CCCNC(=N)N)C(=O)N[C@@H](Cc3ccccc3)C(=O)N[C@@H](Cc3ccc(NC(=N)N)cc3)C(=O)N[C@@H](CC(C)C)C(=O)N3CCC[C@H]3C(=O)N2)C(=O)CCSC[C@@H](C(=O)N[C@@H](CCCNC(=N)N)C(=O)N[C@@H](Cc2c[nH]c3ccccc23)C(=O)O)NC(=O)[C@H](CCCNC(=N)N)NC1=O (H-RCF[Phe(4-guanidino)]LPCRQLRCRW-OH; linker 2-7-12 via TATA) | 380 nM |  |  |
| CC(C)C[C@@H]1NC(=O)[C@H](CCC(N)=O)NC(=O)[C@H](CCCNC(=N)N)NC(=O)[C@@H]2CSCCC(=O)N3CN(CN(C3)C(=O)CCSC[C@H](NC(=O)[C@@H](N)CCCNC(=N)N)C(=O)N[C@@H](Cc3ccccc3)C(=O)N[C@@H](CCCCNC(=N)N)C(=O)N[C@@H](CC(C)C)C(=O)N3CCC[C@H]3C(=O)N2)C(=O)CCSC[C@@H](C(=O)N[C@@H](CCCNC(=N)N)C(=O)N[C@@H](Cc2c[nH]c3ccccc23)C(=O)O)NC(=O)[C@H](CCCNC(=N)N)NC1=O (H-RCF[hArg]LPCRQLRCRW-OH; linker 2-7-12 via TATA) | 71 nM |  |  |
| CC(C)C[C@@H]1NC(=O)[C@H](CCCNC(=N)N)NC(=O)[C@H](Cc2ccccc2)NC(=O)[C@@H](NC(=O)[C@@H](N)CCCNC(=N)N)CSCCC(=O)N2CN3CN(C2)C(=O)CCSC[C@H](NC(=O)[C@@H]2CCCN2C1=O)C(=O)N[C@@H](CCCNC(=N)N)C(=O)N[C@@H](CCC(N)=O)C(=O)N[C@@H](C(C)C)C(=O)N[C@@H](CCCNC(=N)N)C(=O)N[C@H](C(=O)N[C@@H](CCCNC(=N)N)C(=O)N[C@@H](Cc1c[nH]c2ccccc12)C(=O)O)CSCCC3=O (H-RCFRLPCRQVRCRW-OH; linker 2-7-12 via TATA) | 326 nM |  |  |
| CC(C)C[C@@H]1NC(=O)[C@H](CCC(N)=O)NC(=O)[C@H](CCCNC(=N)N)NC(=O)[C@@H]2CSCCC(=O)N3CN(CN(C3)C(=O)CCSC[C@H](NC(=O)[C@@H](N)C(C)C)C(=O)N[C@@H](Cc3ccccc3)C(=O)N[C@@H](CCCNC(=N)N)C(=O)N[C@@H](CC(C)C)C(=O)N3CCC[C@H]3C(=O)N2)C(=O)CCSC[C@@H](C(=O)N[C@@H](CCCNC(=N)N)C(=O)O)NC(=O)[C@H](CCCNC(=N)N)NC1=O (H-VCFRLPCRQLRCR-OH; linker 2-7-12 via TATA) | 99 nM |  |  |
| CC[C@H](C)[C@H](N)C(=O)N[C@H]1CSCCC(=O)N2CN3CN(C2)C(=O)CCSC[C@H](NC(=O)[C@@H]2CCCN2C(=O)[C@H](CC(C)C)NC(=O)[C@H](CCCNC(=N)N)NC(=O)[C@H](Cc2ccccc2)NC1=O)C(=O)N[C@@H](CCCNC(=N)N)C(=O)N[C@@H](CCC(N)=O)C(=O)N[C@@H](CC(C)C)C(=O)N[C@@H](CCCNC(=N)N)C(=O)N[C@H](C(=O)N[C@@H](CCCNC(=N)N)C(=O)O)CSCCC3=O (H-ICFRLPCRQLRCR-OH; linker 2-7-12 via TATA) | 83 nM |  |  |
| CCC[C@@H]1NC(=O)[C@H](CCCNC(=N)N)NC(=O)[C@H](Cc2ccccc2)NC(=O)[C@@H](NC(=O)[C@@H](N)CCCNC(=N)N)CSCCC(=O)N2CN3CN(C2)C(=O)CCSC[C@H](NC(=O)[C@@H]2CCCN2C1=O)C(=O)N[C@@H](CCCNC(=N)N)C(=O)N[C@@H](CCC(N)=O)C(=O)N[C@@H](CC(C)C)C(=O)N[C@@H](CCCNC(=N)N)C(=O)N[C@H](C(=O)N[C@@H](CCCNC(=N)N)C(=O)N[C@@H](Cc1c[nH]c2ccccc12)C(=O)O)CSCCC3=O (H-RCFR[Nva]PCRQLRCRW-OH; linker 2-7-12 via TATA) | 220 nM |  |  |
| CC(C)C[C@@H]1NC(=O)[C@H](CCC(N)=O)NC(=O)[C@H](CCCNC(=N)N)NC(=O)[C@@H]2CSCCC(=O)N3CN(CN(C3)C(=O)CCSC[C@H](NC(=O)[C@@H](N)CCCNC(=N)N)C(=O)N3CCC[C@H]3C(=O)N[C@@H](CCCNC(=N)N)C(=O)N[C@@H](CC(C)C)C(=O)N3CCC[C@H]3C(=O)N2)C(=O)CCSC[C@@H](C(=O)N[C@@H](CCCNC(=N)N)C(=O)N[C@@H](Cc2c[nH]c3ccccc23)C(=O)O)NC(=O)[C@H](CCCNC(=N)N)NC1=O | 36.9 nM |  |  |
| CCC(CC)C1NC(=O)[C@H](CCC(N)=O)NC(=O)[C@H](CCCNC(=N)N)NC(=O)[C@@H]2CSCCC(=O)N3CN(CN(C3)C(=O)CCSC[C@H](NC(=O)[C@@H](N)CCCNC(=N)N)C(=O)N[C@@H](Cc3ccccc3)C(=O)N[C@@H](CCCNC(=N)N)C(=O)N[C@@H](CC(C)C)C(=O)N3CCC[C@H]3C(=O)N2)C(=O)CCSC[C@@H](C(=O)N[C@@H](CCCNC(=N)N)C(=O)N[C@@H](Cc2c[nH]c3ccccc23)C(=O)O)NC(=O)[C@H](CCCNC(=N)N)NC1=O (stereo not given in full) | 38 nM |  |  |

More lines, main results first:

| Ki [1] | half-life at 10 µM [6] | Structure (SMILES) | also measured |
| --- | --- | --- | --- |
| 0.84 nM |  | CC(C)C[C@@H]1NC(=O)[C@H](CCC(N)=O)NC(=O)[C@H](CCCNC(=N)N)NC(=O)[C@@H]2CSCCC(=O)N3CN(CN(C3)C(=O)CCSC[C@H](NC(=O)[C@@H](N)CCCNC(=N)N)C(=O)N[C@@H](Cc3ccc(F)cc3)C(=O)N[C@@H](CCCNC(=N)N)C(=O)N[C@@H](CC(C)C)C(=O)N3CCC[C@H]3C(=O)N2)C(=O)CCSC[C@@H](C(=O)N[C@@H](CCCNC(=N)N)C(=O)O)NC(=O)[C@H](CCCNC(=N)N)NC1=O | inhibition [2]: Active; inhibition [3]: Active; 2aPTT [4]: 1.6 µM; Activity [4]: Dose-dependent effect; Activity [5]: inactive |
| 15 nM | 13 h | CC(C)C[C@@H]1NC(=O)[C@H](CCC(N)=O)NC(=O)[C@H](CCCNC(=N)N)NC(=O)[C@@H]2CSCCC(=O)N3CN(CN(C3)C(=O)CCSC[C@@H](C(=O)N[C@@H](CCCNC(=N)N)C(=O)O)NC(=O)[C@H](CCCNC(=N)N)NC1=O)C(=O)CCSC[C@H](NC(=O)[C@H](N)Cc1ccc(NC(=N)N)cc1)C(=O)N[C@@H](Cc1ccccc1)C(=O)N[C@@H](CCCNC(=N)N)C(=O)N[C@@H](CC(C)C)C(=O)N1CCC[C@H]1C(=O)N2 |  |
| 14 nM | 22 h | CC(C)C[C@@H]1NC(=O)[C@H](CCC(N)=O)NC(=O)[C@H](CCCNC(=N)N)NC(=O)[C@@H]2CSCCC(=O)N3CN(CN(C3)C(=O)CCSC[C@@H](C(=O)N[C@@H](CCCNC(=N)N)C(=O)O)NC(=O)[C@H](CCCNC(=N)N)NC1=O)C(=O)CCSC[C@H](NC(=O)[C@H](N)CCNC(=N)N)C(=O)N[C@@H](Cc1ccccc1)C(=O)N[C@@H](CCCNC(=N)N)C(=O)N[C@@H](CC(C)C)C(=O)N1CCC[C@H]1C(=O)N2 |  |
| 6.5 nM | 2 h | CC(C)C[C@@H]1NC(=O)[C@H](CCC(N)=O)NC(=O)[C@H](CCCNC(=N)N)NC(=O)[C@@H]2CSCCC(=O)N3CN(CN(C3)C(=O)CCSC[C@@H](C(=O)N[C@@H](CCCNC(=N)N)C(=O)O)NC(=O)[C@H](CCCNC(=N)N)NC1=O)C(=O)CCSC[C@H](NC(=O)[C@H](N)CCCCCN)C(=O)N[C@@H](Cc1ccccc1)C(=O)N[C@@H](CCCNC(=N)N)C(=O)N[C@@H](CC(C)C)C(=O)N1CCC[C@H]1C(=O)N2 |  |
| 8.8 nM | 5 h | CC(C)C[C@@H]1NC(=O)[C@H](CCC(N)=O)NC(=O)[C@H](CCCNC(=N)N)NC(=O)[C@@H]2CSCCC(=O)N3CN(CN(C3)C(=O)CCSC[C@@H](C(=O)N[C@@H](CCCNC(=N)N)C(=O)O)NC(=O)[C@H](CCCNC(=N)N)NC1=O)C(=O)CCSC[C@H](NC(=O)[C@H](N)CCCCNC(=N)N)C(=O)N[C@@H](Cc1ccccc1)C(=O)N[C@@H](CCCNC(=N)N)C(=O)N[C@@H](CC(C)C)C(=O)N1CCC[C@H]1C(=O)N2 |  |
| 9 nM |  | CC(C)C[C@@H]1NC(=O)[C@H](CCC(N)=O)NC(=O)[C@H](CCCNC(=N)N)NC(=O)[C@@H]2CSCCC(=O)N3CN(CN(C3)C(=O)CCSC[C@H](NC(=O)[C@@H](N)CCCCN)C(=O)N[C@@H](Cc3ccccc3)C(=O)N[C@@H](CCCNC(=N)N)C(=O)N[C@@H](CC(C)C)C(=O)N3CCC[C@H]3C(=O)N2)C(=O)CCSC[C@@H](C(=O)N[C@@H](CCCNC(=N)N)C(=O)O)NC(=O)[C@H](CCCNC(=N)N)NC1=O (H-KCFRLPCRQLRCR-OH; linker 2-7-12 via TATA) |  |
| 13 nM |  | CC(C)C[C@@H]1NC(=O)[C@H](CCC(N)=O)NC(=O)[C@H](CCCNC(=N)N)NC(=O)[C@@H]2CSCCC(=O)N3CN(CN(C3)C(=O)CCSC[C@H](NC(=O)[C@@H](N)CCCNC(=N)N)C(=O)N[C@@H](Cc3ccccc3)C(=O)N[C@@H](CCCNC(=N)N)C(=O)N[C@@H](CC(C)C)C(=O)N[C@@H](CC(C)C)C(=O)N2)C(=O)CCSC[C@@H](C(=O)N[C@@H](CCCNC(=N)N)C(=O)N[C@@H](Cc2c[nH]c3ccccc23)C(=O)O)NC(=O)[C@H](CCCNC(=N)N)NC1=O (H-RCFRLLCRQLRCRW-OH; linker 2-7-12 via TATA) |  |
